Residues, ends and D or L forms follow the SMILES beside them.
Legend:
[1] = test system: circulating CD8^+ T cells; assay: ex-vivo combinatorial HLA-A2 MMr assay on PBMCs; format: cell-based, human; conditions: for cognate naïve CD8^+ T-cell repertoire (validation of candidate epitope): frequency 1-50/10^6 CD8^+ T cells, clustered MMr staining, ≥50% of individuals; for median frequency in peripheral blood: T1D patients; for frequency of MMr^+ CD8^+ T cells, in words: HLA-A2^+ recent-onset T1D and healthy subjects
[2] = test system: islet-infiltrating CD8+ T cells of NOD mice; assay: IFN-γ recall assay of islet-infiltrating cells against peptide-pulsed K^d+ L cells; format: cell-based; conditions: for positive mice (number/tested) / positive mice, percentage: 12-16-week-old NOD females, positive = IFN-γ^+CD8^+ cells >1.8%; for median percentage of IFN-γ^+CD8^+ cells / positive range of percentage of IFN-γ^+CD8^+ cells: 6 h peptide recall with brefeldin-A, intracellular IFN-γ staining
Description: Peptides predicted to be restricted by the murine MHC Class I K^d molecule were identified using prediction algorithms and scanning of the whole murine protein sequence. Peptides were first tested in pools, and positive pools subsequently deconvoluted for reactivity against individual peptides. To this end, islets were isolated from 12-16-week-old NOD mice by collagenase digestion and put in culture with recombinant human IL-2 (Proleukin, Novartis) for 5 days as described (Brezar et al, Eur J Immunol 2012). Cells exiting the islets were subsequently collected and subjected to recall assays against K^d+ L antigen-presenting cells pulsed with the indicated peptides for 6 h in the presence of brefeldin-A, followed by intracellular staining for IFN-γ. The TUM, Ins B15-23 and IGRP 206-214 peptides were included as negative control and positive controls, respectively.
We performed experiments in 12-16-week-old NOD females by analyzing the reactivity of islet-infiltrating CD8^+ T cells to peptides derived from murine Ucn3 and Pcsk2 and predicted to be restricted by the murine MHC molecule K^d. A positive response was defined as a percentage of IFN-γ^+CD8^+ cells >1.8%, which was the median response observed for the negative control TUM peptide.

[3] = test system: pancreas-infiltrating cells of HLA-A2^+ T1D patients; assay: in-situ HLA-A2 MMr staining on pancreas sections; format: cell-based, human; conditions: 2 HLA-A2^+ T1D cases, nPOD tissue sections
Method: In-situ staining was performed as described (Culina et al., 2018). Unfixed, frozen sections were dried for 2 h, loaded with 1 μg of MMrs overnight at 4° C., washed gently with phosphate-buffered saline and fixed in 2% paraformaldehyde for 10 min. After a further wash, endogenous peroxidase activity was blocked with 0.3% H2O2. Sections were then incubated serially with rabbit anti-phycoerythrin, horseradish peroxidase-conjugated swine anti-rabbit and 3,3′-diaminobenzidine tetrahydrochloride substrate (ThermoFisher). After a final wash, sections were counterstained with hematoxylin, dehydrated via sequential passages in 95-100% ethanol and xylene, mounted and analyzed using a Nikon Eclipse Ni microscope with NIS-Elements Analysis D software v4.40.

HLA-A*02:01 [4] = target: T1, HLA-A*02:01 (human); assay: one of the 18 HLA-eluted peptides with verified HLA-A2 binding; loaded on HLA-A2 multimers
T1 construct: HLA-A2 multimers were produced as in Leisner et al. 2008; also called HLA-A2; A2

HLA-A*02:01 [5] = target: T1, HLA-A*02:01; assay: LC-MS/MS of peptides eluted from W6/32-purified pHLA Class I complexes of beta cells; the HLA-A2 restriction in this row is predicted
Method: The HLA class I peptidome of the ECN90 β-cell line was obtained from 5 biological replicates. A single biological replicate was available for primary human islets. […] Beads were subsequently loaded on GELoader Tips (20 μl; ThermoFisher) and washed before elution of pHLA complexes with 10% acetic acid.
Eluted peptides and the associated HLA Class I heavy chain and β2-microglobulin obtained from 20×10⁶ cells were concentrated to 20 μl by vacuum centrifugation, acidified with 10 μl of 1% aqueous formic acid (Normapur) and loaded on C18 stage tips (ThermoFisher) prewashed with 100% methanol and equilibrated with acetonitrile (ACN)/0.1% formic acid in LC-MS grade water (aq. formic acid) 2:98 (v/v). After loading, the C18 stage tips were washed with ACN/0.1% aq. formic acid 2:98 (v/v) and peptides separated from the more hydrophobic HLA Class I heavy chain and β2-microglobulin species by eluting them with ACN/0.1% aq. formic acid 1:1 (v/v). […] For MS analysis, 5 μl of this peptide solution were used.
Peptides were loaded and separated by nanoflow HPLC (RSLC Ultimate 3000, ThermoFisher Scientific) on a reversed phase nanocolumn (C18 Acclaim PepMap 100, 50 cm length, 75 μm i.d. ThermoFisher Scientific) coupled on-line to a nanoESI Q Exactive mass spectrometer (ThermoFisher Scientific).

Row | Molecule | cognate naïve CD8^+ T-cell repertoire (validation of candidate epitope) ([1]; HLA-A2^+ healthy donors) | positive mice (number/tested) [2] | positive mice, percentage [2] [%] | median percentage of IFN-γ^+CD8^+ cells [2] [%] | positive range of percentage of IFN-γ^+CD8^+ cells [2] | further results
1 | CC(C)C[C@H](NC(=O)[C@H](CCC(=O)O)NC(=O)[C@@H](NC(=O)[C@H](CC(C)C)NC(=O)[C@H](Cc1ccccc1)NC(=O)[C@H](Cc1c[nH]cn1)NC(=O)[C@H](CC(N)=O)NC(=O)[C@@H](NC(=O)[C@@H](N)Cc1ccccc1)[C@@H](C)O)C(C)C)C(=O)O (H-FTNHFLVEL-OH; N-terminus and C-terminus assumed) | validated |  |  |  |  | 
2 | CHGA344-352: HLA-eluted HLA-A2-restricted chromogranin A peptide (KMDQLAKEL) | validated |  |  |  |  | 
3 | GYRDINEIDI [Pcsk2 109-118, peptide derived from murine Pcsk2, predicted to be restricted by K^d] |  | 6/8 | 50 | 1.8 | 1.9-4.3% | 
4 | IAPP15-17/IAPP5-10: peptide splice product from fusion of IAPP15-17/IAPP5-10 (VALKLQVFL) |  |  |  |  |  | donors with recognition ([1]; HLA-A2^+ healthy donors, screening): 1 of 6; median frequency in peripheral blood [1]: 1.6×10^−6; in-situ MMr staining of pancreas sections [3]: MMr^+ cells could be detected
5 | IGRP 206-214: positive control peptide in NOD recall assay (VYLKTNVFL; UniProt Q9Z186 206-214, looked up, fragment) [reference compound] |  | 13/13 | 100 | 12.5 | 4.5-25.3% | 
6 | ISL1276-284: HLA-eluted HLA-A2-restricted peptide of insulin gene enhancer protein ISL1 (GLQANPVEV) | validated |  |  |  |  | median frequency in peripheral blood [1]: 7.2×10^−6; in-situ MMr staining of pancreas sections [3]: MMr^+ cells could be detected
7 | KCNK16129-137: HLA-eluted HLA-A2-restricted KCNK16 peptide (ALLGIPLNV) | validated |  |  |  |  | 
8 | KIF1A1347-1355: HLA-eluted HLA-A2-restricted Kinesin Family Member 1A peptide (VLDTSVAYV) | validated |  |  |  |  | 
9 | LYDESCSSTL [Pcsk2 341-350, peptide derived from murine Pcsk2, predicted to be restricted by K^d] |  | 6/8 | 75 | 3.3 | 1.9-5.2% | 
10 | RYLEHVQAVI [Pcsk2 501-510, peptide derived from murine Pcsk2, predicted to be restricted by K^d] |  | 5/8 | 63 | 2.7 | 2.1-8.0% | 
11 | SCG5-009186-194: HLA-eluted peptide from SCG5-009 mRNA splice variant (FLSGAVNRL) | validated |  |  |  |  | frequency of MMr^+ CD8^+ T cells, in words [1]: particularly high and clustered
12 | SCG5186-195: HLA-eluted HLA-A2-restricted SCG5 (7B2) peptide (YLQGQRLDNV) | validated |  |  |  |  | 
13 | TYFLLPLLL [Ucn3 5-13, peptide derived from murine Ucn3, predicted to be restricted by K^d] |  | 8/12 | 67 | 2.3 | 2.1-8.6% | 
14 | UCN31-9: HLA-eluted HLA-A2-restricted urocortin-3 peptide (MLMPVHFLL) | validated |  |  |  |  | frequency of MMr^+ CD8^+ T cells, in words [1]: particularly high and clustered
15 | VFSCLNTAL [Ucn3 32-40, peptide derived from murine Ucn3, predicted to be restricted by K^d] |  | 8/12 | 67 | 1.9 | 1.9-3.3% | 
16 | ZnT8186-184: positive control islet peptide (VAANIVLTV; UniProt Q8IWU4 186-194, looked up, fragment) [reference compound] |  |  |  |  |  | in-situ MMr staining of pancreas sections [3]: MMr^+ cells could be detected
17 | ALLGIPLNV (peptide, UniProt Q96T55 129-137, looked up, range 129-137; Synthetic peptide) [KCNK16 129-137 peptide] |  |  |  |  |  | binding result (HLA-A*02:01 [4]): binds
18 | FTNHFLVEL [PCSK2 30-38 peptide (FTNHFLVEL)] |  |  |  |  |  | binding result (HLA-A*02:01 [5]): binds
19 | GLQANPVEV (peptide, UniProt P61371 276-284, looked up, range 276-284; Synthetic peptide) [insulin gene enhancer protein ISL1 276-284 peptide] |  |  |  |  |  | binding result (HLA-A*02:01 [4]): binds

Reference: patent publication US20210023209A1, “ANTIGENIC PEPTIDES DERIVING FROM PCSK2 AND USES THEREOF FOR THE DIAGNOSIS AND TREATMENT OF TYPE 1 DIABETES” (INSERM (INSTITUT NATIONAL DE LA SANTÉ ET DE LA RECHERCHE …, priority 2018, published 2021)
